According to US20250084067A1, “PYRAZOLE-SUBSTITUTED CYCLOPENTANOL ESTER DERIVATIVE AND USE THEREOF” (CHIA TAI TIANQING PHARMACEUTICAL GROUP CO., LTD., priority 2022, published 2025):
Where two headings read alike, the source gives them in different places.

Tests used:
[1] = target: CDK2/CycA2 kinase (Homo sapiens (Human), UniProt P24941); assay: Determination of inhibitory activity against CDK2/CycA2 kinase; assay type: biochemical
Method: The wells were set in duplicate, and a control well was set. […] The resulting mixture was left to react at room temperature for 2 h, and then 5 µL of EDTA was added to terminate the reaction, followed by addition of 5 μL of a detection antibody (manufacturer: PerkinElmer, concentration: 8 nM). The mixture was incubated at room temperature for 1 h.

[2] = target: CDK2 CycE1 kinase (Homo sapiens (Human), UniProt P24941); assay: Determination of inhibitory activity against CDK2 CycE1 kinase; assay type: biochemical
Method: CDK2 CycE1 kinase solution (concentration: 0.015 ng/μL) was added to assay wells at 6 μL/well, and different compounds dissolved in DMSO were added to the assay wells separately using a nanoliter pipettor, such that the final concentrations of the compounds were 300 nM to 0.07 nM. The wells were set in duplicate, and a control well was set. After incubation of the above system for 30 min, ATP (concentration: 50 μM or 5000 μM) was mixed with ULight-Myelin Basic Protein Peptide substrate (manufacturer: PerkinElmer, concentration: […]) at a ratio of 1:1, and the mixture was added to the assay wells at 4 μL/well. The resulting mixture was left to react at room temperature for 2 h, and then 5 μL of EDTA was added to terminate the reaction, followed by addition of 5 μL of a detection antibody (manufacturer: PerkinElmer, concentration: 8 nM). The mixture was incubated at room temperature for 1 h.

[3] = read-out: CDK2/CycA2 10 μM ATP (kinase) IC50
[4] = read-out: CDK2/CycE1 10 μM ATP (kinase) IC50

SMILES | IC50 ([1]; 10 μM ATP) | IC50 ([2]; 10 μM ATP) | IC50 [1, 3] | IC50 [2, 4]
CC(C)NC(=O)O[C@@H]1CC[C@H](c2cc(Nc3ccc4c(c3)OCO4)n[nH]2)C1 [Example 39] | < 10 nM | < 10 nM |  | 
CC(C)NC(=O)O[C@@H]1CC[C@H](c2cc(Nc3ccc(NS(C)(=O)=O)c(OC(F)(F)F)n3)n[nH]2)C1 [Example 29] | < 10 nM | < 10 nM |  | 
CC(=O)Nc1ccc(Nc2cc([C@H]3CC[C@@H](OC(=O)NC(C)C)C3)[nH]n2)nc1 [Example 6] | < 10 nM | < 10 nM |  | 
O=C(NC1CC1)O[C@@H]1CC[C@H](c2cc(Nc3ccc4c(c3)CS(=O)(=O)C4)n[nH]2)C1 [Example 67] | < 10 nM | < 10 nM |  | 
CC(C)NC(=O)O[C@@H]1CC[C@H](c2cc(Nc3ccc(N=S(C)(C)=O)cc3)n[nH]2)C1 [Example 59] | 10 to 50 nM | 10 to 50 nM |  | 
CC(C)NC(=O)O[C@@H]1CC[C@H](c2cc(Nc3ccc(N4CCCS4(=O)=O)cn3)n[nH]2)C1 [Example 28] | < 10 nM | < 10 nM |  | 
CC(C)NC(=O)O[C@@H]1CC[C@H](c2cc(Nc3ccc(NS(C)(=O)=O)c(C(F)(F)F)n3)n[nH]2)C1 [Example 11] | < 10 nM | < 10 nM |  | 
CC(C)NC(=O)O[C@@H]1CC[C@H](c2cc(Nc3ccc(NC=O)cn3)n[nH]2)C1 [Example 5] | < 10 nM | < 10 nM |  | 
CC(C)NC(=O)O[C@@H]1CC[C@H](c2cc(NC3CCN(S(=O)(=O)c4cnn(C)c4)CC3)n[nH]2)C1 [Example 60] | 10 to 50 nM | 10 to 50 nM |  | 
CC(C)NC(=O)O[C@@H]1CC[C@H](c2cc(Nc3ccc(S(C)(=N)=O)c(Cl)c3)n[nH]2)C1 (stereo partly shown) [Example 73] |  |  | < 10 nM | < 10 nM
CC(C)NC(=O)O[C@@H]1CC[C@H](c2cc(Nc3ccc(S(N)(=O)=O)c(F)c3)n[nH]2)C1 [Example 33] | < 10 nM | < 10 nM |  | 
CC(C)NC(=O)O[C@@H]1CC[C@H](c2cc(Nc3ccc(-c4cnco4)cn3)n[nH]2)C1 [Example 36] | 10 to 50 nM | < 10 nM |  | 
CC1(NC(=O)O[C@@H]2CC[C@H](c3cc(Nc4ccc5c(c4)CS(=O)(=O)C5)n[nH]3)C2)CC1 [Example 48] | < 10 nM | < 10 nM |  | 
CC(=O)N(C)c1ccc(Nc2cc([C@H]3CC[C@@H](OC(=O)NC(C)C)C3)[nH]n2)nc1 [Example 4] | 10 to 50 nM | 10 to 50 nM |  | 
CC(C)NC(=O)OC1CCC(c2cc(NC3CCN(S(C)(=O)=O)CC3)n[nH]2)C1 (stereo not shown) [Example 22] | 10 to 50 nM | 10 to 50 nM |  | 
CC(C)NC(=O)O[C@@H]1CC[C@H](c2cc(Nc3ccc4c(c3)S(=O)(=O)CC4)n[nH]2)C1 [Example 75] | 10 to 50 nM | < 10 nM |  | 
CC(C)NC(=O)O[C@@H]1CC[C@H](c2cc(Nc3ccc(NS(C)(=O)=O)c(C(F)F)c3)n[nH]2)C1 [Example 74] |  |  | < 10 nM | < 10 nM
[2H]C([2H])([2H])C([2H])(NC(=O)O[C@@H]1CC[C@H](c2cc(Nc3ccc4c(c3)CS(=O)(=O)C4)n[nH]2)C1)C([2H])([2H])[2H] [Example 78] | < 10 nM | < 10 nM |  | 
COc1ccc(Nc2cc([C@H]3CC[C@@H](OC(=O)NC(C)C)C3)[nH]n2)nc1 [Example 9] | 10 to 50 nM | < 10 nM |  | 
CC(C)NC(=O)O[C@@H]1CC[C@H](c2cc(Nc3ccc4c(c3)CNS4(=O)=O)n[nH]2)C1 [Example 56] | < 10 nM | < 10 nM |  | 
CC(C)NC(=O)O[C@@H]1CC[C@H](c2cc(Nc3ccc4c(c3)CC(=O)N4)n[nH]2)C1 [Example 42] | < 10 nM | < 10 nM |  | 
CC(C)NC(=O)O[C@@H]1CC[C@H](c2cc(Nc3ccc(NS(C)(=O)=O)nc3)n[nH]2)C1 [Example 15] | < 10 nM | < 10 nM |  | 
[2H]C([2H])([2H])C([2H])(NC(=O)O[C@@H]1CC[C@H](c2cc(Nc3ccc(S(N)(=O)=O)c(Cl)n3)n[nH]2)C1)C([2H])([2H])[2H] [Example 77] | < 10 nM | < 10 nM |  | 
CC(C)NC(=O)O[C@@H]1CC[C@H](c2cc(Nc3ccc(P(C)(C)=O)cc3)n[nH]2)C1 [Example 41] | 10 to 50 nM | 10 to 50 nM |  | 

SMILES | IC50 ([1]; 10 μM ATP) | IC50 ([2]; 10 μM ATP) | IC50 [1, 3] | IC50 [2, 4]
CC(C)NC(=O)O[C@@H]1CC[C@H](c2cc(Nc3ccc(S(C)(=N)=O)cc3)n[nH]2)C1 (stereo partly shown) [Example 61] | < 10 nM | < 10 nM |  | 
CC(C)NC(=O)O[C@@H]1CC[C@H](c2cc(Nc3ccc(S(=O)(=O)N(C)C)cn3)n[nH]2)C1 [Example 69] | 10 to 50 nM | 10 to 50 nM |  | 
CC(C)NC(=O)OC1CCC(c2cc(Nc3ncc(NS(C)(=O)=O)cn3)n[nH]2)C1 (stereo not shown) [Example 19] | 10 to 50 nM | < 10 nM |  | 
CC(C)NC(=O)O[C@H]1CC[C@@H](c2cc(Nc3ccc(S(N)(=O)=O)cc3F)n[nH]2)C1 [Example 34] | < 10 nM | < 10 nM |  | 
CC(C)NC(=O)OC1CCC(c2cc(Nc3ccc4c(n3)OCC4)n[nH]2)C1 (stereo not shown) [Example 21] | < 10 nM | < 10 nM |  | 
CC(C)NC(=O)O[C@@H]1CC[C@H](c2cc(Nc3ccc(S(=N)(=O)C4CC4)cc3)n[nH]2)C1 (stereo partly shown) [Example 62] | < 10 nM | < 10 nM |  | 
CC(C)NC(=O)O[C@@H]1CC[C@H](c2cc(Nc3ccc(S(N)(=O)=O)c(C(F)(F)F)c3)n[nH]2)C1 [Example 66] | < 10 nM | < 10 nM |  | 
C[C@@H](NC(=O)O[C@@H]1CC[C@H](c2cc(Nc3ccc4c(c3)CS(=O)(=O)C4)n[nH]2)C1)C(F)(F)F [Example 64] |  |  | < 10 nM | < 10 nM
CC(C)NC(=O)O[C@@H]1CC[C@H](c2cc(Nc3ccc(S(N)(=O)=O)cc3F)n[nH]2)C1 [Example 25] | < 10 nM | < 10 nM |  | 
CC(C)NC(=O)O[C@@H]1CC[C@H](c2cc(Nc3ccc(NS(C)(=O)=O)c(F)n3)n[nH]2)C1 [Example 24] | < 10 nM | < 10 nM |  | 
CC(C)NC(=O)O[C@@H]1CC[C@H](c2cc(Nc3ccc(S(C)(=O)=O)cc3)n[nH]2)C1 [Example 54] | < 10 nM | < 10 nM |  | 
CC(C)NC(=O)O[C@@H]1CC[C@H](c2cc(Nc3ccc(C#N)cc3)n[nH]2)C1 [Example 72] | < 10 nM | < 10 nM |  | 
CC(C)NC(=O)O[C@@H]1CC[C@H](c2cc(Nc3ccc(NS(C)(=O)=O)c(F)c3)n[nH]2)C1 [Example 23] | < 10 nM | < 10 nM |  | 
CC(C)NC(=O)O[C@@H]1CC[C@H](c2cc(Nc3ccc(NS(C)(=O)=O)c(OC(F)(F)F)c3)n[nH]2)C1 [Example 47] | < 10 nM | < 10 nM |  | 
COCc1ccc(Nc2cc(C3CCC(OC(=O)NC(C)C)C3)[nH]n2)nc1 (stereo not shown) [Example 18] | 10 to 50 nM | 10 to 50 nM |  | 
CC(C)NC(=O)O[C@@H]1CC[C@H](c2cc(Nc3ccc(N4CCCC4=O)cn3)n[nH]2)C1 [Example 14] | < 10 nM | < 10 nM |  | 
CC(C)NC(=O)O[C@@H]1CC[C@H](c2cc(Nc3ccc(N4CCCC4=O)c(Cl)n3)[nH]n2)C1 [Example 57] |  |  | < 10 nM | < 10 nM
CC(C)NC(=O)O[C@@H]1CC[C@H](c2cc(Nc3ccc(N4CCCC4=O)c(F)c3)n[nH]2)C1 [Example 35] | < 10 nM | < 10 nM |  | 
CC(C)NC(=O)O[C@@H]1CC[C@H](c2cc(Nc3ccc(NS(C)(=O)=O)cc3)n[nH]2)C1 [Example 7] | < 10 nM | < 10 nM |  | 
CNS(=O)(=O)c1ccc(Nc2cc(C3CCC(OC(=O)NC(C)C)C3)[nH]n2)c(F)c1 (stereo not shown) [Example 16] | < 10 nM | < 10 nM |  | 
CC(C)NC(=O)O[C@@H]1CC[C@H](c2cc(Nc3ccc4c(c3)CS(=O)(=O)N4)n[nH]2)C1 [Example 43] |  |  | < 10 nM | < 10 nM
CC(C)NC(=O)O[C@@H]1CC[C@H](c2cc(Nc3ccc(NS(C)(=O)=O)c(Cl)n3)n[nH]2)C1 [Example 30] | < 10 nM | < 10 nM |  | 
COCCNc1ccc(Nc2cc(C3CCC(OC(=O)NC(C)C)C3)[nH]n2)nc1 (stereo not shown) [Example 20] | 10 to 50 nM | 10 to 50 nM |  | 
